Patent publication US6143764A, “Quinoline and quinazoline derivatives inhibiting platelet-derived growth factor receptor autophosphorylation and pharmaceutical compositions containing the same” (priority 1995, dated 2000)

How the values were obtained:
COL-1 (colon) = assay: Antitumor effect against COL-1 colon tumor in nude mice; assay type: in vivo; conditions: 100 mg/kg intraperitoneally once a day, 9 days
Procedure: (§1) Human glioma, GLO7 (obtained from the Central Institute for Experimental Animals), was transplanted into nude mice. When the tumor had grown to a volume of about 100 mm^3, the nude mice were divided into several groups of 4 animals so as to equalize the average tumor volumes of each group. The test drug was administered orally to animals in experimental groups 2 times a day for 14 consecutive days at 100 mg/kg, and the vehicle was administered to control animals. The tumor growth inhibition rate (TGIR, %) was calculated from the equation: TGIR=(1-Tx/Cx)×100, in which Cx is the tumor volume in the control mice and Tx is the tumor volume in the drug-treated mice, on day X, when the initial tumor volume at the time treatment was commenced is set 1.
(§2) In the same manner as described in 2, various types of tumor cells (obtained from the Central Institute for Experimental Animals) were transplanted into nude mice. When the tumor had grown to a volume of about 100 mm^3, the animals were allocated to several groups each consisting of 4 animals so as to equalize the average tumor volume of each group. Test drugs were administered intraperitoneally to animals in experimental groups once a day for 9 consecutive days at 100 mg/kg, and the vehicle was administered to control animals.

[1] = system: mouse leukemia cells (P388); assay: Antitumor effect against mouse leukemia cells (P388), survival of mice; assay type: in vivo; conditions: CDF1 mice, 100 mg/kg intraperitoneally, 9 consecutive days
Procedure: P388 cells (1×10^5 cells), mouse leukemia cells obtained from ATCC, were inoculated intraperitoneally into CDF1 mice (obtained from Japan SLC, Inc.), and then the test compound was administered intraperitoneally for 9 consecutive days at the dose of 100 mg/kg. The drug-treated animals survived longer than control animals by 130%.

[2] = system: collagen-induced arthritis in mice; assay: Effect on collagen-induced arthritis in mice; assay type: in vivo, mouse (DBA/lJNCrj); conditions: for Number of mice with arthritis/total mice: 16 days; for Incidence of collagen-induced arthritis: 16 days (vehicle 70)
PDGF receptor = target: T1, PDGF receptor (Rattus norvegicus, UniProt Q05030); assay: PDGF receptor autophosphorylation inhibition in cultured rat mesangial cells; assay type: cell-based; conditions: PDGF-BB 50 ng/ml
T1 construct: cultured rat mesangial cells which are known to have the PDGF receptor; endogenous in cells; host or cells: primary mesangial cells cultured from glomeruli of Wistar-Kyoto rats (Charles River Japan), more than 5 passages
T1 sequence (Q05030 32-1097): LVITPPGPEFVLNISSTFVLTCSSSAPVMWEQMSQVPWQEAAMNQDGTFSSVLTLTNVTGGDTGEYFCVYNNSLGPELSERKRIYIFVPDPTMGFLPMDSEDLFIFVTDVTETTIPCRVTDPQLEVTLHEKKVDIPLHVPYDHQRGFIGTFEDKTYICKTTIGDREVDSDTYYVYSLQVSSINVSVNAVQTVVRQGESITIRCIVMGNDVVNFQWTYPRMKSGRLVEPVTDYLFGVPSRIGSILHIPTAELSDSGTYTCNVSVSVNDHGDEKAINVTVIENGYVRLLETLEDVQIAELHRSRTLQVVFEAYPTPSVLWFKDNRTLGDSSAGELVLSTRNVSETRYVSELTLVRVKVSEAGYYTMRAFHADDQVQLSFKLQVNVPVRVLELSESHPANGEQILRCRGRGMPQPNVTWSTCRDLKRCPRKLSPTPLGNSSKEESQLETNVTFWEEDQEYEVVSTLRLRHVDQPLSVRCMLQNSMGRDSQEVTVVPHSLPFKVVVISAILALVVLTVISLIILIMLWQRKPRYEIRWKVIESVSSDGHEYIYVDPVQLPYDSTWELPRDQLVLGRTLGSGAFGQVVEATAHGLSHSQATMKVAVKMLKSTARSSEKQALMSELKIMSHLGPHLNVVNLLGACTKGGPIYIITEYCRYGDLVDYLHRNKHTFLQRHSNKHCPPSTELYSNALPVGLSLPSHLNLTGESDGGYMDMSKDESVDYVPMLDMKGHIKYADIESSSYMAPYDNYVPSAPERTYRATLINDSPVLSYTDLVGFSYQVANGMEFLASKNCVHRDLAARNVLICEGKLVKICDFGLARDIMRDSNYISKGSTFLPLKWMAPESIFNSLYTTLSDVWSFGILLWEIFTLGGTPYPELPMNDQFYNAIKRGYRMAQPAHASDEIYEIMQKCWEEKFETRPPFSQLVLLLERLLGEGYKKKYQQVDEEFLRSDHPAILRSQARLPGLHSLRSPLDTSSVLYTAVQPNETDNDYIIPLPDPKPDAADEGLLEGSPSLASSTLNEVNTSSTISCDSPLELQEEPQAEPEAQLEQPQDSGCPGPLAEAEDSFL
Procedure, shortened: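 Growth-arrested rat mesangial cells (>5 passages, 0.5% FCS for 3 days) preincubated with drug in 0.1% BSA medium for 1 h at 37° C., then stimulated with 50 ng/ml human PDGF-BB for 10 min. Phosphotyrosine Western blot of ~180 kDa receptor band by densitometry, normalized to PDGF-stimulated (100%) and unstimulated (0%) wells.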

[3] = system: human glioma cells (GLO7); assay: Antitumor effect of compound number 43 against human glioma (GLO7), nude mice xenograft; assay type: in vivo; conditions: 100 mg/kg orally 2 times a day, 14 days, test period about 4 weeks
Procedure: as §1, with “1. During the test period of about 4 weeks, the maximum TGIR value was 76%, and thus an excellent antitumor effect was observed.” for “1.”

St-4 (stomach) = assay: Antitumor effect against St-4 stomach tumor in nude mice; assay type: in vivo; conditions: 100 mg/kg intraperitoneally once a day, 9 days
Procedure: as §1, §2

L-27 (lung) = assay: Antitumor effect against L-27 lung tumor in nude mice; assay type: in vivo; conditions: 100 mg/kg intraperitoneally once a day, 9 days
Procedure: as §1, §2

In the case of COc1ccc(NC(=O)Nc2ccc(Oc3ccnc4cc(OC)c(OC)cc34)cc2)cc1 [Compound 43, N-(4-Methoxyphenyl)-N'-{4-[(6,7-dimethoxy-4-quinolinyl)oxy]phenyl}urea], the “Tumor growth inhibition rate (TGIR)” value (COL-1 (colon)) is reported as 68%, the “prolonged survival: drug-treated animals survived longer than control animals by” value [1] is reported as 130% and the “Number of mice with arthritis/total mice” value ([2]; 10 mg/kg intraperitoneally) is reported as 1/9. The “Incidence of collagen-induced arthritis” value ([2]; 10 mg/kg intraperitoneally) was 11%, the “Number of mice with arthritis/total mice” value ([2]; 100 mg/kg intraperitoneally) was 0/10 and the “Incidence of collagen-induced arthritis” value ([2]; 100 mg/kg intraperitoneally) was 0%. The IC50 (PDGF receptor) was 5 nM, the “maximum tumor growth inhibition rate (TGIR)” value [3] was 76% and the “Tumor growth inhibition rate (TGIR)” value (St-4 (stomach)) was 78%. For the same compound, the “Tumor growth inhibition rate (TGIR)” value (L-27 (lung)) was 83%.
